# Key:
# [1] = test system: Microsporum canis (strain B68128); assay: Test D.4.1: activity against M. canis in guinea-pigs after oral treatment for 7 consecutive days; assay type: in vivo; set-up: key to semi-quantitative lesion score (mean): lesion score 0–3.5 by severity and size of lesion; settings: oral 10 mg/kg once daily for 7 days
# Description: The animals used in the tests described below were female Guinea pigs (Duncan-Hartley, Charles River, 200 g). These animals were kept in groups of 2 or 3 in cages of 56×33×20 cm^3. Food pellets (Carfil Quality) and water were available ad libitum in addition to a small daily amount of hay. Standard husbandry conditions were adopted: room temperature: 22° C., humidity level: 60% and a day-night cycle of 12 h.
# For the preparation of inoculums, Microsporum canis (strain B68128) was grown on Sabouraud Dextrose Agar (SDA) plates for at least one week (7-10 days) before infection (27° C.). On the day of infection, spores were harvested by adding 4-5 ml sterile water on the plate and suspending the infectious material with a bend Pasteur pipette. From the recollected fluid, 10 μl was added to a KOVA counting chamber for determination of the number of spores in 1 square (average of several squares). If needed, additional dilutions (10× or 100×) were prepared. The average number of spores in one square×dilution×90.000=cfu/ml. An inoculum of 1×10^7 cfu/ml was prepared in a honey-water mixture (50%-50%).
# In the tests described below, semi-quantitative lesion scores were given based on different clinical parameters. Scores between 0 and 3.5 were assigned based on the severity and size of the lesion. The criteria are listed in detail in Table 6.
# The dorsum of the guinea pigs was shaved and further depilated for 3 minutes with Veet® creme before scarification with a steel brush. An inoculum of 10^6 cfu in 150 μl (75 mQ+75 μl honey) was applied to the wound using a micropipette with disposable tips. The animal was kept immobilized until the inoculum had completely dried. […]
# vehicle: methocel 0.5%, Tween 80® (polysorbate 80), demineralised water reference compound: itraconazole at 6.25 mg/ml test compounds: prepared at 25 mg/ml, subsequently further diluted
# Oral treatment (gavage 0.16 ml/100 g once daily) was started about 2 hours before infection and continued once daily for 7 consecutive days. The animals were weighed after 3 days of treatment to adjust for the dose.
# Developments of lesions were evaluated following the semi-quantitative lesion scoring system (see Table 6) on days 3, 5, 7, 10, 12, 14, 17 and 20. The results are show in Table 7 (“DPI” means days post infection). Reported values in Table 7 are mean values.
# [2] = test system: Scedosporium prolificans IHEM21157; assay: Antifungal activity in vitro (resazurin susceptibility screen), Inf. I; assay type: cell-based; settings: Lomentospora prolificans, 37 °C, 48 hours, resa time 17 hours
# Description: (§1) The standard susceptibility screen was performed in 96-well plates (U-bottom, Greiner Bio-One). Serial dilutions (2-fold or 4-fold) of 20 mM compound stock solutions were made in 100% DMSO, followed by an intermediate dilution step in water. These serial dilutions (10 μl) were then spotted onto test-plates that could be stored in the dark at 4° C. for a maximum period of 2 weeks. An adequate broad dose-range was included with 64 μM as the highest in-test concentration. The culture medium RPMI-1640 was supplemented with L-glutamine, 2% glucose and buffered with 3-(N-morpholino)-propanesulfonic acid (MOPS) at pH 7.0±0.1. The different fungal species/isolates (Table 3a) were cryopreserved and 1/1000 diluted in medium just prior to use. A standard inoculum of 200 μl containing 10^3 colony-forming unit (cfu) was then added to each well. A positive control (100% growth=fungal culture without antifungal) and a negative control (0% growth=RPMI-MOPS medium) were included on each plate. Optimal incubation time and temperature were dependent on the fungal species and vary from 24 h for yeasts (37° C.) to one week or more for dermatophytes (27° C.). Inhibition of fungal growth was measured after adding 10 μl of 0.005% (w/v) resazurin (Sigma Aldrich) to each well, based on the principle that living cells convert the non-fluorescent blue resazurin into the pink and fluorescent resorufin, allowing fluorimetric reading (λhd ex 550 nm and μem 590 nm) after an additional incubation period (‘resa’ time mentioned in Table 3a). [table]
# [3] = test system: Rhizopus oryzae IHEM5223; assay: Antifungal activity in vitro (resazurin susceptibility screen), Inf. J; assay type: cell-based; settings: 37 °C, 24 hours, resa time 6 hours
# Description: as §1
# [4] = test system: Sporothrix schenkii B62482; assay: Antifungal activity in vitro (resazurin susceptibility screen), Inf. A; assay type: cell-based; settings: 27 °C, 4 days, resa time 24 hours; for pIC50 Inf. A: Sporothrix schenkii B62482; for IC50: Sporothrix, B62482, Sporothrix schenkii B62482
# Description: as §1
# [5] = test system: Microsporum canis B68128; assay: Antifungal activity in vitro (resazurin susceptibility screen), Inf. B; assay type: cell-based; settings: 27 °C, 9 days, resa time 24 hours; for pIC50 Inf. B: Microsporum canis B68128; for IC50: Microsporum canis, B68128, Microsporum canis B68128
# Description: as §1
# [6] = test system: Trichophyton rubrum B68183; assay: Antifungal activity in vitro (resazurin susceptibility screen), Inf. C; assay type: cell-based; settings: 27 °C, 7 days, resa time 24 hours; for pIC50 Inf. C: Trichophyton rubrum B68183; for IC50: Trichophyton rubrum, B68183, Trichophyton rubrum B68183
# Description: as §1
# [7] = test system: Candida parapsilosis B66126; assay: Antifungal activity in vitro (resazurin susceptibility screen), Inf. D; assay type: cell-based; settings: 37 °C, 24 hours, resa time 4 hours; for pIC50 Inf. D: Candida parapsilosis B66126; for IC50: Lodderomyces parapsilosis, B66126, Candida parapsilosis B66126
# Description: as §1
# [8] = test system: Aspergillus fumigatus B42928; assay: Antifungal activity in vitro (resazurin susceptibility screen), Inf. E; assay type: cell-based; settings: 27 °C, 48 hours, resa time 17 hours; for pIC50 Inf. E: Aspergillus fumigatus B42928; for IC50: Aspergillus fumigatus, B42928, Aspergillus fumigatus B42928
# Description: as §1
# [9] = test system: Cryptococcus neoformans B66663; assay: Antifungal activity in vitro (resazurin susceptibility screen), Inf. F; assay type: cell-based; settings: 37 °C, 24 hours, resa time 4 hours; for pIC50 Inf. F: Cryptococcus neoformans B66663; for IC50: Cryptococcus neoformans, B66663, Cryptococcus neoformans B66663
# Description: as §1
# [10] = test system: Trichophyton mentagrophytes B70554; assay: Antifungal activity in vitro (resazurin susceptibility screen), Inf. G; assay type: cell-based; settings: 27 °C, 7 days, resa time 24 hours; for pIC50 Inf. G: Trichophyton mentagrophytes B70554; for IC50: Trichophyton mentagrophytes, B70554, Trichophyton mentagrophytes B70554
# Description: as §1
# [11] = test system: Scedosporium apiospermum IHEM3817; assay: Antifungal activity in vitro (resazurin susceptibility screen), Inf. H; assay type: cell-based; settings: Scedosporium apiospermum IHEM3817; 37 °C, 48 hours, resa time 17 hours
# Description: as §1
# [12] = test system: Rhizomucor miehei IHEM13391; assay: Antifungal activity in vitro (resazurin susceptibility screen), Inf. K; assay type: cell-based; settings: Rhizomucor miehei IHEM13391; 37 °C, 48 hours, resa time 17 hours
# Description: as §1
# [13] = test system: Mucor circinelloides IHEM21105; assay: Antifungal activity in vitro (resazurin susceptibility screen), Inf. L; assay type: cell-based; settings: 27 °C, 48 hours, resa time 17 hours
# Description: as §1
Structure (SMILES),pIC50 Inf. A [4],pIC50 Inf. B [5],pIC50 Inf. C [6],pIC50 Inf. D [7],pIC50 Inf. E [8],pIC50 Inf. F [9],pIC50 Inf. G [10],IC50 [4] [µM],IC50 [5] [µM],IC50 [6] [µM],IC50 [7] [µM],IC50 [8] [µM],IC50 [9] [µM],IC50 [10] [µM],further results
"CCC(C)n1ncn(-c2ccc(N3CCN(c4ccc(OCC5COC(Cn6cncn6)(c6ccc(Cl)cc6Cl)O5)cc4)CC3)cc2)c1=O (stereo not shown) [Itraconazole, reference compound]",–,–,–,–,–,–,–,–,–,–,–,–,–,–,semi-quantitative lesion score (mean) ([1]; 3 DPI): 0; semi-quantitative lesion score (mean) ([1]; 5 DPI): 0; semi-quantitative lesion score (mean) ([1]; 7 DPI): 0; semi-quantitative lesion score (mean) ([1]; 10 DPI): 0; semi-quantitative lesion score (mean) ([1]; 12 DPI): 0; semi-quantitative lesion score (mean) ([1]; 14 DPI): 0; semi-quantitative lesion score (mean) ([1]; 17 DPI): 0; semi-quantitative lesion score (mean) ([1]; 20 DPI): 0
"CC(F)(F)c1ccc([C@H]2NCc3c(Cl)cccc3-n3cccc32)cc1 (single isomer, unassigned) [Compound 3]",–,–,–,–,–,–,–,–,–,–,–,–,–,–,IC50 [2]: 0.708 µM; IC50 ([3]; Rhizopus arrhizus): > 64.6 µM
"CC(F)(F)c1ccc(C2NCc3c(ccc(Cl)c3Cl)-n3cccc32)cc1.Cl (stereo not shown) [Compound 7, 7,8-dichloro-4-[4-(1,1-difluoroethyl)phenyl]-5,6-dihydro-4H-pyrrolo[1,2-a][1,4]-benzodiazepine.HCl]",<4.19,5.40,5.40,<4.19,<4.19,<4.19,<4.19,–,–,–,–,–,–,–,–
"CC(F)(F)c1cc(C2=NCc3cccc(Cl)c3-n3cccc32)ccc1F [Compound 35, 10-chloro-4-[3-(1,1-difluoroethyl)-4-fluorophenyl]-6H-pyrrolo[1,2-a][1,4]-benzodiazepine]",–,–,–,–,–,–,–,4.27,0.525,0.302,14.8,1.45,0.525,1.58,–
"CC(F)(F)c1cc(C2=NCc3ccc(Cl)cc3-n3cccc32)ccc1F [Compound 34, 9-chloro-4-[3-(1,1-difluoroethyl)-4-fluorophenyl]-6H-pyrrolo[1,2-a][1,4]benzodiazepine]",–,–,–,–,–,–,–,7.94,8.13,7.94,2.95,7.94,5.75,8.13,–
"CC(F)(F)c1ccc(C2NCc3cc(Cl)cc(Cl)c3-n3cccc32)cc1.Cl (stereo not shown) [Compound 5, 8,10-dichloro-4-[4-(1,1-difluoroethyl)phenyl]-5,6-dihydro-4H-pyrrolo[1,2-a][1,4]-benzodiazepine.HCl]",<4.19,<4.19,4.22,<4.19,<4.19,4.46,<4.19,–,–,–,–,–,–,–,–
"CC(F)(F)c1ccc(C2=NCc3c(ccc(Cl)c3Cl)-n3cccc32)cc1 [Compound 10, 7,8-dichloro-4-[4-(1,1-difluoroethyl)phenyl]-6H-pyrrolo[1,2-a][1,4]benzodiazepine]",–,–,–,–,–,–,–,> 64.6,> 64.6,> 64.6,> 64.6,> 64.6,> 64.6,> 64.6,–
"CC(F)(F)c1ccc(C2NCc3c(Cl)cc(Cl)cc3-n3cccc32)cc1.Cl (stereo not shown) [Compound 13, 7,9-dichloro-4-[4-(1,1-difluoroethyl)phenyl]-5,6-dihydro-4H-pyrrolo[1,2-a][1,4]-benzodiazepine.HCl]",<4.19,4.23,5.70,<4.19,4.81,<4.19,5.14,–,–,–,–,–,–,–,–
"CC(F)(F)c1ccc(C2NCc3c(Cl)cccc3-n3cccc32)cc1.Cl (stereo not shown) [Compound 1, 7-chloro-4-[4-(1,1-difluoroethyl)phenyl]-5,6-dihydro-4H-pyrrolo[1,2-a][1,4]-benzodiazepine.HCl]",4.68,6.45,6.91,5.70,6.72,5.30,6.89,–,–,–,–,–,–,–,pIC50 Inf. H [11]: <4.19; pIC50 Inf. J [3]: <4.19; pIC50 Inf. K [12]: <4.19; IC50 [13]: > 64.6 µM
"CC(F)(F)c1ccc(C2NCc3c(Cl)ccc(Cl)c3-n3cccc32)cc1.Cl (stereo not shown) [Compound 11, 7,10-dichloro-4-[4-(1,1-difluoroethyl)phenyl]-5,6-dihydro-4H-pyrrolo[1,2-a][1,4]-benzodiazepine.HCl]",<4.19,<4.19,4.86,<4.19,<4.19,<4.19,<4.19,–,–,–,–,–,–,–,–

# From patent US9637490B2, “Antifungal 5,6-dihydro-4-[(difluoroethyl)phenyl]-4H-pyrrolo[1,2-α][1,4]benzodiazepine and 4-(difluoroethyl)phenyl-6H-pyrrolo[1,2-α][1,4]benzodiazepine derivatives” (Janssen Pharmaceutica NV, priority 2010, dated 2017)
